The values that follow come from DBAASP.

What is called MIC is the least concentration at which growth counts as inhibited.

Holding throughout (test): ≥ marks a high value that may be exact or a test limit, other limits are often not marked, values filed in µg/mL are converted to µM
Assay [1] concerns Enterococcus faecalis ATCC 29212.
Assay [2] has as its system Escherichia coli UB1005.
For assay [3], the system named is Pseudomonas aeruginosa K799.
The subject of assay [4] is Salmonella enterica subsp. enterica serovar Typhimurium ATCC 14028s.
The test system of assay [5] is Staphylococcus aureus ATCC 25923.
In assay [6] the test system is Staphylococcus epidermidis C621.
The test system of assay [7] is Bacillus subtilis ATCC 6633.
Assay [8] concerns Escherichia coli ATCC 25922.
Assay [9] deals with Pseudomonas aeruginosa ATCC BAA-427.
The test system of assay [10] is Bacillus subtilis CMCC 63501.
Assay [11] deals with Pseudomonas aeruginosa ATCC 27853.
Assay [12] relates to Salmonella enterica subsp. enterica serovar Pullorum C79-13.
The test system of assay [13] is Salmonella enterica subsp. enterica serovar Typhimurium ATCC 14028.
The test system of assay [14] is Staphylococcus aureus ATCC 29213.
Assay [15] relates to Staphylococcus epidermidis ATCC 12228.
Assay [16] relates to Salmonella enterica subsp. enterica serovar Typhimurium C77-31.
Assay [17] has as its system Bacillus subtilis ATCC 6051.
For assay [18], the system named is Escherichia coli NEB5alpha.
Assay [19] relates to Salmonella enterica subsp. enterica serovar Choleraesuis CVCC 503.
Assay [20] has as its system Staphylococcus aureus ATCC 43300.
Assay [21] has as its system Staphylococcus aureus.
The test system of assay [22] is Streptococcus agalactiae.

Molecules are shown by their SMILES. Converted amounts (≈) assume the structure as drawn. Where only a bound is given, the exact number is not on record here.

On to `CC[C@H](C)[C@@H]1NC(=O)[C@H](CCCN=C(N)N)NC(=O)[C@H](C(C)C)NC(=O)[C@H](CCCN=C(N)N)NC(=O)[C@@H]2CCCN2C(=O)[C@@H](NC(=O)[C@H](CC(C)C)NC(=O)[C@@H](N)CCCN=C(N)N)CSSC[C@@H](C(=O)N[C@@H](CCCN=C(N)N)C(N)=O)NC(=O)[C@H](C(C)C)NC(=O)[C@H](CCCN=C(N)N)NC1=O` [RLCPRVRIRVCR], for which the MIC in assay [1] is over 21 µM; in [2], 2.62 µM (≈ 3.99 µg/mL); in assay [3], 10.5 µM (≈ 16 µg/mL); in assay [4], 21 µM (≈ 31.9 µg/mL); in assay [5], over 21 µM; in [6], 10.5 µM (≈ 16 µg/mL).
`CC(C)C[C@H](NC(=O)[C@H](CC(=O)O)NC(=O)[C@H](CC(C)C)NC(=O)[C@H](CCCCN)NC(=O)[C@H](CC(C)C)NC(=O)[C@H](CC(=O)O)NC(=O)[C@H](CC(C)C)NC(=O)[C@H](CCCCN)NC(=O)[C@H](CC(C)C)NC(=O)[C@H](CC(=O)O)NC(=O)[C@H](CC(C)C)NC(=O)[C@H](CCCCN)NC(=O)[C@@H](N)CCCN=C(N)N)C(=O)O` [RKLDLKLDLKLDL]: the minimum inhibitory concentration (MIC) in [7] was 30 µM (≈ 47.5 µg/mL); in assay [8], 30 µM (≈ 47.5 µg/mL); in assay [9], at least 42 µM; in assay [5], 25 µM (≈ 39.6 µg/mL).
On to `CC(C)[C@H](NC(=O)[C@H](CCCCN)NC(=O)[C@H](C)NC(=O)[C@H](C)NC(=O)[C@H](C)NC(=O)[C@H](CCCCN)NC(=O)[C@H](C)NC(=O)[C@H](C)NC(=O)[C@H](C)NC(=O)[C@H](CCCCN)NC(=O)[C@@H](NC(=O)[C@@H](N)Cc1c[nH]c2ccccc12)C(C)C)C(=O)N[C@@H](Cc1c[nH]c2ccccc12)C(N)=O` [WVKAAAKAAAKVW], for which the MIC in assay [10] is at least 128 µM; in assay [1], 64 µM (≈ 89.5 µg/mL); in assay [8], 32 µM (≈ 44.8 µg/mL); in [2] it was at least 128 µM; in assay [11], over 128 µM; in assay [12], at least 64 µM. The MIC in [13], in assay [14] and in assay [15] was over 128 µM each time.
On to `CC[C@H](C)[C@H](N)C(=O)N[C@@H](CCCN=C(N)N)C(=O)N[C@@H](CS)C(=O)N[C@@H](CCCN=C(N)N)C(=O)N[C@@H](CCCN=C(N)N)C(=O)N[C@@H](CCCN=C(N)N)C(=O)N[C@@H](Cc1ccccc1)C(=O)N[C@@H](CS)C(=O)N[C@@H](CCCN=C(N)N)C(=O)N[C@H](C(N)=O)[C@@H](C)CC` [IRCRRRFCRI], for which the minimum inhibitory concentration (MIC) in assay [10] is 4 µM (≈ 5.51 µg/mL); in assay [1], 64 µM (≈ 88.2 µg/mL); in [8], 8 µM (≈ 11 µg/mL); in assay [11], 64 µM (≈ 88.2 µg/mL); in assay [12], 16 µM (≈ 22 µg/mL); in [16] it was at least 128 µM. In addition, the MIC in assay [14] and in assay [15] was 64 µM (≈ 88.2 µg/mL) each time.
Turning to `CC[C@H](C)[C@H](NC(=O)[C@H](C)NC(=O)CNC(=O)[C@H](CCCCN)NC(=O)[C@H](CCC(=O)O)NC(=O)[C@H](CCC(=O)O)NC(=O)[C@H](CC(=O)O)NC(=O)[C@H](CCC(=O)O)NC(=O)[C@H](CC(=O)O)NC(=O)[C@H](CCCN=C(N)N)NC(=O)CNC(=O)[C@H](CCC(N)=O)NC(=O)[C@H](CC(C)C)NC(=O)[C@@H](N)CCCCN)C(=O)N[C@H](C(=O)N[C@@H](CCCCN)C(=O)N[C@H](C(=O)N[C@@H](CCCCN)C(=O)NCC(=O)NCC(=O)N[C@@H](CC(C)C)C(=O)O)C(C)C)C(C)C` [KLQGRDEDEEKGAIVKVKGGL], the MIC is at least 1000 µM in assay [17] and at least 500 µM in [18].
In the case of `NC(=O)[C@H](Cc1c[nH]c2ccccc12)NC(=O)[C@H](CCCN=C(N)N)NC(=O)[C@H](Cc1c[nH]c2ccccc12)NC(=O)[C@H](CCCN=C(N)N)NC(=O)[C@H](CS)NC(=O)[C@H](Cc1ccccc1)NC(=O)[C@H](CCCN=C(N)N)NC(=O)[C@H](CCCN=C(N)N)NC(=O)[C@H](CCCN=C(N)N)NC(=O)[C@H](CS)NC(=O)[C@H](CCCN=C(N)N)NC(=O)[C@H](Cc1c[nH]c2ccccc12)NC(=O)[C@H](CCCN=C(N)N)NC(=O)[C@@H](N)Cc1c[nH]c2ccccc12` [WRWRCRRRFCRWRW], the MIC amounted to 1 µM (≈ 2.21 µg/mL) in [10]; 2 µM (≈ 4.42 µg/mL) in assay [1]; 4 µM (≈ 8.83 µg/mL) in assay [8]; 8 µM (≈ 17.7 µg/mL) in [11]; 2 µM (≈ 4.42 µg/mL) in assay [12]; 4 µM (≈ 8.83 µg/mL) in assay [16]. Further, the MIC in assay [14] was found to be 4 µM (≈ 8.83 µg/mL); in [15] it was 2 µM (≈ 4.42 µg/mL).
`CC[C@H](C)[C@H](NC(=O)[C@H](C)NC(=O)CNC(=O)[C@H](CCCCN)NC(=O)[C@H](CCC(=O)O)NC(=O)[C@H](CCC(=O)O)NC(=O)[C@H](CC(=O)O)NC(=O)[C@H](CCC(=O)O)NC(=O)[C@H](CC(N)=O)NC(=O)[C@H](CCCN=C(N)N)NC(=O)CNC(=O)[C@H](CCC(N)=O)NC(=O)[C@H](CC(C)C)NC(=O)[C@@H](N)CCCCN)C(=O)N[C@H](C(=O)N[C@@H](CCCCN)C(=O)N[C@H](C(=O)N[C@@H](CCCCN)C(=O)NCC(=O)NCC(=O)N[C@@H](CC(C)C)C(=O)O)C(C)C)C(C)C` [KLQGRNEDEEKGAIVKVKGGL]: the MIC in assay [17] and in assay [18] was at least 1000 µM each time.
On to `CC(C)C[C@H](NC(=O)[C@H](CC(=O)O)NC(=O)[C@H](CC(C)C)NC(=O)[C@H](CCCCN)NC(=O)[C@H](CC(C)C)NC(=O)[C@H](CC(=O)O)NC(=O)[C@H](CC(C)C)NC(=O)[C@H](CCCCN)NC(=O)[C@H](CC(C)C)NC(=O)[C@H](CC(=O)O)NC(=O)[C@H](CC(C)C)NC(=O)[C@H](CCCCN)NC(=O)[C@H](CCCN=C(N)N)NC(=O)[C@@H](N)CCCN=C(N)N)C(=O)O` [RRKLDLKLDLKLDL], for which the MIC worked out at 10 µM (≈ 17.4 µg/mL) in assay [7], 10 µM (≈ 17.4 µg/mL) in [8], 10 µM (≈ 17.4 µg/mL) in assay [9] and 8 µM (≈ 13.9 µg/mL) in [5].
On to `CC[C@H](C)[C@H](N)C(=O)N[C@H](C(=O)N[C@H](C(=O)N[C@@H](CS)C(=O)N[C@@H](CCCN=C(N)N)C(=O)N[C@@H](CCCCN)C(=O)N1CCC[C@H]1C(=O)N[C@H](C(=O)N[C@H](C(=O)N[C@@H](CS)C(=O)N[C@@H](CCCN=C(N)N)C(=O)N[C@@H](CCCCN)C(=O)N1CCC[C@H]1C(=O)N[C@H](C(=O)N[C@H](C(=O)N[C@@H](CS)C(=O)N[C@@H](CCCN=C(N)N)C(=O)N[C@@H](CCCCN)C(=O)N1CCC[C@H]1C(=O)N[C@H](C(=O)N[C@H](C(=O)N[C@@H](CS)C(=O)N[C@@H](CCCN=C(N)N)C(=O)N[C@@H](CCCCN)C(=O)N1CCC[C@H]1C(=O)N[C@H](C(=O)N[C@H](C(=O)N[C@H](C(N)=O)[C@@H](C)CC)[C@@H](C)CC)[C@@H](C)CC)[C@@H](C)CC)[C@@H](C)CC)[C@@H](C)CC)[C@@H](C)CC)[C@@H](C)CC)[C@@H](C)CC)[C@@H](C)CC)[C@@H](C)CC` [IIICRKPIICRKPIICRKPIICRKPIII], for which the MIC in assay [1] amounted to 8 µM (≈ 26.5 µg/mL); in assay [2] it was 2 µM (≈ 6.63 µg/mL); in assay [19], 2 µM (≈ 6.63 µg/mL); in [12], 4 µM (≈ 13.3 µg/mL); in assay [13], 2 µM (≈ 6.63 µg/mL); in [16], 2 µM (≈ 6.63 µg/mL). Further, the minimum inhibitory concentration (MIC) in assay [20] was 4 µM (≈ 13.3 µg/mL); in assay [21], 4 µM (≈ 13.3 µg/mL); in assay [15], 4 µM (≈ 13.3 µg/mL); in [22] it was 2 µM (≈ 6.63 µg/mL).
`CC(C)C[C@H](NC(=O)[C@H](CCCN=C(N)N)NC(=O)[C@H](CC(C)C)NC(=O)[C@H](CC(C)C)NC(=O)[C@H](CCC(N)=O)NC(=O)[C@H](CCC(=O)O)NC(=O)[C@H](CC(C)C)NC(=O)[C@H](Cc1ccc(O)cc1)NC(=O)CNC(=O)[C@@H](N)CC(C)C)C(=O)O` [LGYLEQLLRL] gave an MIC in assay [18] of at least 1360 µM.
